In US9725477B2, “Platinum compounds of malonic acid derivative having leaving group containing amino or alkylamino” (BEIJING FSWELCOME TECHNOLOGY DEVELOPMENT CO., LTD, priority 2012, dated 2017):
Read-outs that look alike come from different tables or passages of the source.

How the values were obtained:
[1] = system: Testis cell ST; assay: MTT cytotoxicity, testis cell ST; type: cell-based; conditions: n = 6
[2] = system: Esophagus cancer ECA109; assay: MTT cytotoxicity, esophagus cancer ECA109; type: cell-based; conditions: n = 6
[3] = system: gastric cancer MGC803; assay: MTT cytotoxicity, gastric cancer MGC803; type: cell-based; conditions: n = 6
[4] = system: Lung cancer H292; assay: MTT cytotoxicity, lung cancer H292; type: cell-based; conditions: Lung cancer H292, MTT, n = 6; read-out: cytotoxicity IC50
[5] = system: colon cancer SW480; assay: MTT cytotoxicity, colon cancer SW480; type: cell-based; conditions: colon cancer SW480, MTT, n = 6; read-out: cytotoxicity IC50
[6] = Solubility in water; conditions: compound of the example (salt form) in water
[7] = system: Lung cancer A549; assay: MTT cytotoxicity, lung cancer A549; conditions: read-out: IC50 of anti-lung cancer A549, method of test example 2
Procedure: Cell morphologies were observed after being cultivated for 24 hours.

[8] = system: normal mice; assay: in vivo; conditions: method of test example 1; for LD50: Table 1, formula I compounds; for LD50 vALUE: Table 2, formula II compounds
Procedure: Kunming mice with 4˜6 weeks old and 18 g˜22 g by weight were taken, 50% males and 50% females. […] The condition of mortality and toxicity were observed after administration. Totally observing for 14 days, LD50 value was calculated using Bliss method according to the mortality.

Work on “2-(2-diethylaminobutyl)-malonate•cis-1,2-(1,2-dihydroxymethyl)-ethylenediamine platinum (II) phosphate [Compound 20]” yielded an IC50 [1] of 11 µM, an IC50 [2] of 17 µM and an IC50 [3] of 4 µM. For the same compound, the IC50 [4] was 5 µM.
“2-(4-diethylaminobutyl)-malonate•cis-(1, 2-trans-cyclopropanediamine) platinum (II) phosphate [Compound 16]” showed an IC50 [1] of 10 µM, an IC50 [3] of 4 µM and an IC50 [5] of 13 µM. It also gave an IC50 [4] of 5 µM.
In the case of “2-(4-diethylaminobutyl)-malonate•cis-(2-aminomethyl-cyclopentylamine) platinum (II) acetate [Compound 27]”, the IC50 [1] is reported as 13 µM, the IC50 [2] is reported as 54 µM and the IC50 [3] is reported as 5 µM. For the same compound, the IC50 [4] was 4 µM.
“2-(4-diethylaminobutyl)-malonate•cis-ammonia•cyclopentylamine platinum (II) acetate [Compound 26]” gave an IC50 [1] of 11 µM, an IC50 [2] of 91 µM and an IC50 [3] of 1 µM. The IC50 [4] was 4 µM.
For “2-(4-diethylaminobutyl)-malonate•cis-dicyclopentylamine platinum (II) acetate [Compound 25]”, the IC50 [1] was 7 µM, the IC50 [2] was 29 µM and the IC50 [3] was 3 µM. For the same compound, the IC50 [4] was 6 µM.
CCN(CC)CCCCC1C(=O)[O][Pt]2([NH]C3CCC3[NH]2)[O]C1=O.O=C(O)CCC(=O)O (racemic) [Compound 15, 2-(4-diethylaminobutyl)-malonate•cis-(1,2-trans-cyclobutanediamine) platinum (II) succinate] showed an IC50 [3] of 3 µM, an IC50 [5] of 18 µM and an IC50 [4] of 10 µM.
With CCN(CC)CCCCC1C(=O)[O][Pt]2([NH]CC3CCC3C[NH]2)[O]C1=O.O=P(O)(O)O (racemic) [Compound 22, 2-(4-diethylaminobutyl)-malonate•cis-1,4-(trans-2,3-cyclobutyl)-butanediamine platinum (II) phosphate] the IC50 [1] was 14 µM, the solubility [6] was “more than 300 mg/ml” and the IC50 [2] was 102 µM. The IC50 [3] was 7 µM and the IC50 [4] was 5 µM.
With CCN(CC)CCCCC1C(=O)[O][Pt]2([NH]CC[NH]2)[O]C1=O.Cc1ccc(S(=O)(=O)O)cc1 [Compound 17, 2-(4-diethylaminobutyl)-malonate•cis-(1,2-ethylenediamine) platinum (II) tosilate] the IC50 [1] was 16 µM, the solubility [6] was “more than 300 mg/ml” and the IC50 [3] was 5 µM. The IC50 [5] was 7 µM and the IC50 [4] was 4 µM.
In the case of CCN(CC)CCCCC1C(=O)[O][Pt]2([NH]CCC[NH]2)[O]C1=O.O=P(O)(O)O [Compound 18, 2-(4-diethylaminobutyl)-malonate•cis-(1,3-propanediamine) platinum (II) phosphate], the IC50 [1] is reported as 22 µM, the solubility [6] is reported as “more than 300 mg/ml” and the IC50 [3] is reported as 2 µM. It also gave an IC50 [5] of 14 µM and an IC50 [4] of 8 µM.
With CCN(CC)CCCCC1C(=O)[O][Pt]2([NH]CCCC[NH]2)[O]C1=O.O=P(O)(O)O [Compound 19, 2-(4-diethylaminobutyl)-malonate•cis-(1,4-butanediamine) platinum (II) phosphate] the IC50 [1] was 13 µM, the solubility [6] was “more than 300 mg/ml” and the IC50 [3] was 5 µM. It also gave an IC50 [5] of 23 µM and an IC50 [4] of 6 µM.
In the case of CCN(CC)CCCCC1C(=O)[O][Pt]2([NH]CC(CO)(CO)C[NH]2)[O]C1=O.O=P(O)(O)O [Compound 21, 2-(4-diethylaminobutyl)-malonate•cis-1,3-(2,2-hydroxymethyl)-propanediamine platinum (II) phosphate], the IC50 [1] is reported as 13 µM, the solubility [6] is reported as “more than 300 mg/ml” and the IC50 [3] is reported as 5 µM. For the same compound, the IC50 [4] was 12 µM.
For C[N+](C)(C)CCCCC1C(=O)[O][Pt][O]C1=O.Cc1ccc(S(=O)(=O)[O-])cc1.N[C@@H]1CCCC[C@H]1N [Compound 29, 2-(4-trimethylaminobutyl)-malonate•cis-(1,2-trans-cyclohexanediamine) platinum(II) tosilate], the IC50 [1] was 8 µM, the IC50 [2] was 25 µM and the IC50 [3] was 2 µM. For the same compound, the IC50 [4] was 7 µM.
With CCN(C)CC(CCC1C(=O)[O][Pt][O]C1=O)OC.N.N (stereo not shown) [Compound 30] the IC50 ([7]; Table 1, formula I compounds) was 12 µM and the LD50 [8] was 0.759 mmol/kg.
CCN(C)CC(CCC1C(=O)[O][Pt][O]C1=O)OC.NC1CCCCC1N (stereo not shown) [Compound 31] showed an IC50 ([7]; Table 1, formula I compounds) of 5 µM and an LD50 [8] of 0.732 mmol/kg.
CC1CCN(CCCCC2C(=O)[O][Pt]3([NH]C4CC=CCC4[NH]3)[O]C2=O)C1 (stereo not shown) [Compound 33] gave an IC50 ([7]; Table 1, formula I compounds) of 7 µM and an LD50 [8] of 0.826 mmol/kg.
CN(CCCCC1C(=O)[O][Pt]2([NH]C3CCCCC3[NH]2)[O]C1=O)C(C)(C)C (stereo not shown) [Compound 34] gave an LD50 [8] of 0.905 mmol/kg.
O=C1[O][Pt]2([NH]C3CCCCC3[NH]2)[O]C(=O)C1CCCCN1CC=CC1 (stereo not shown) [Compound 35] showed an IC50 ([7]; Table 1, formula I compounds) of 4 µM and an LD50 [8] of 0.762 mmol/kg.
In the case of NC1CCCCC1N.O=C1[O][Pt][O]C(=O)C1CCC(Cl)CN1CCCCC1 (stereo not shown) [Compound 36], the IC50 ([7]; Table 1, formula I compounds) is reported as 7 µM and the LD50 [8] is reported as 0.713 mmol/kg.
Compound CC1CCN(CCCCC2C(=O)[O][Pt]3([NH]C4CCCCC4[NH]3)[O]C2=O)CC1 (stereo not shown) [Compound 37] has an IC50 ([7]; Table 1, formula I compounds) of 9 µM and an LD50 [8] of 0.825 mmol/kg.
CC1CCCN1CCCCC1C(=O)[O][Pt]2([NH]C3CCCCC3[NH]2)[O]C1=O (stereo not shown) [Compound 38] showed an IC50 ([7]; Table 1, formula I compounds) of 6 µM and an LD50 [8] of 0.818 mmol/kg.
For COC1CC(C)N(CCCCC2C(=O)[O][Pt][O]C2=O)C1C.NC1CCCCC1N (stereo not shown) [Compound 39], the IC50 ([7]; Table 1, formula I compounds) was 6 µM and the LD50 [8] was 0.711 mmol/kg.
Work on CCN(CC)CCCCC1C(=O)[O][Pt][O]C1=O.NC1CC(O)C(O)CC1N [Compound 40] yielded an IC50 ([7]; Table 1, formula I compounds) of 21 µM and an LD50 [8] of 0.683 mmol/kg.
CC1CC(Cl)C(C)N1CCCCC1C(=O)[O][Pt]2([NH]C3CCCCC3[NH]2)[O]C1=O (stereo not shown) [Compound 41] gave an IC50 ([7]; Table 1, formula I compounds) of 13 µM and an LD50 [8] of 0.675 mmol/kg.
Compound O=C1[O][Pt]2([NH]C3CCCCC3[NH]2)[O]C(=O)C1CCCCN(C1CCCC1)C1CCCC1 (stereo not shown) [Compound 42] has an IC50 ([7]; Table 1, formula I compounds) of 5 µM and an LD50 [8] of 0.826 mmol/kg.
For CN(CCCCC1C(=O)[O][Pt]2([NH]C3CCCCC3[NH]2)[O]C1=O)C1CCCC1 (stereo not shown) [Compound 43], the IC50 ([7]; Table 1, formula I compounds) was 5 µM and the LD50 [8] was 0.841 mmol/kg.
In the case of CN(C)CCCCC1C(=O)[O][Pt][O]C1=O.NC1CCC(N)C1 [Compound 44], the IC50 ([7]; Table 1, formula I compounds) is reported as 24 µM and the LD50 [8] is reported as 0.857 mmol/kg.
CC1CC(C)[NH][Pt]2([NH]1)[O]C(=O)C(CCCCN(C)C)C(=O)[O]2 (stereo not shown) [Compound 45] showed an IC50 ([7]; Table 1, formula I compounds) of 31 µM and an LD50 [8] of 0.834 mmol/kg.
In the case of CN(C)CCCCC1C(=O)[O][Pt][O]C1=O.NCC1CN1 [Compound 46], the IC50 ([7]; Table 1, formula I compounds) is reported as 27 µM and the LD50 [8] is reported as 0.823 mmol/kg.
With CN(C)CCCCC1C(=O)[O][Pt][O]C1=O.NCC1CCN1 [Compound 47] the IC50 ([7]; Table 1, formula I compounds) was 23 µM and the LD50 [8] was 0.815 mmol/kg.
CN(C)CCCCC1C(=O)[O][Pt][O]C1=O.NCC1CCCN1 [Compound 48] showed an IC50 ([7]; Table 1, formula I compounds) of 31 µM and an LD50 [8] of 0.831 mmol/kg.
For CN(C)CCCCC1C(=O)[O][Pt][O]C1=O.NCC1CCCCN1 [Compound 49], the IC50 ([7]; Table 1, formula I compounds) was 45 µM and the LD50 [8] was 0.817 mmol/kg.
Work on O=C1[O][Pt]2([NH]C3CCCCC3[NH]2)[O]C(=O)C1CCCCN1CCOCC1 (stereo not shown) [Compound 51] yielded an IC50 ([7]; Table 1, formula I compounds) of 26 µM and an LD50 [8] of 0.654 mmol/kg.
CN(CO)CCCCC1C(=O)[O][Pt]([NH2])([NH]C2CCC2)[O]C1=O (stereo not shown) [Compound 52] gave an IC50 ([7]; Table 1, formula I compounds) of 41 µM and an LD50 [8] of 0.687 mmol/kg.
In the case of CCN(C)CC(O)CCC1C(=O)[O][Pt][O]C1=O.NC1CCCCC1N (stereo not shown) [Compound 54], the LD50 [8] is reported as 0.792 mmol/kg.
With CCN(CC)CCCCC1C(=O)[O][Pt]([NH]C2CCCC2)([NH]C2CCCC2)[O]C1=O [Compound 55] the IC50 ([7]; Table 1, formula I compounds) was 61 µM and the LD50 [8] was 0.852 mmol/kg.
O=C1[O][Pt]([NH]C2CCCC2)([NH]C2CCCC2)[O]C(=O)C1CCCCN(C1CC1)C1CC1 [Compound 56] showed an IC50 ([7]; Table 1, formula I compounds) of 57 µM and an LD50 [8] of 0.816 mmol/kg.
In the case of CN(CCCCC1C(=O)[O][Pt]2([NH]C3CCCCC3[NH]2)[O]C1=O)Cc1ccccc1 (stereo not shown) [Compound 57], the LD50 [8] is reported as 0.613 mmol/kg.
Compound CN(CCCCC1C(=O)[O][Pt]2([NH]C3CCCCC3[NH]2)[O]C1=O)Cc1ccc(Cl)cc1 (stereo not shown) [Compound 58] has an IC50 ([7]; Table 1, formula I compounds) of 37 µM and an LD50 [8] of 0.607 mmol/kg.
CN(CCCCC1C(=O)[O][Pt]([NH2])([NH2])[O]C1=O)Cc1ccc(Cl)cc1F [Compound 59] gave an IC50 ([7]; Table 1, formula I compounds) of 68 µM and an LD50 [8] of 0.598 mmol/kg.
For CCCCN(C)CCCCC1C(=O)[O][Pt]2([NH][C@H]3CCCC[C@H]3[NH]2)[O]C1=O (stereo partly shown) [Compound 60], the IC50 ([7]; Table 1, formula I compounds) was 9 µM and the LD50 [8] was 0.875 mmol/kg.
In the case of CCCN.CCN(CC)CCCCC1C(=O)[O][Pt][O]C1=O.NC1CC=NC1 [Compound 63], the IC50 ([7]; Table 1, formula I compounds) is reported as 25 µM and the LD50 [8] is reported as 0.804 mmol/kg.
With CCCC[N+](C)(C)CCCCC1C(=O)[O][Pt]2([NH][C@H]3CC(OC)C(OC)C[C@H]3[NH]2)[O]C1=O (stereo partly shown) [Compound 65] the IC50 ([7]; Table 2, formula II compounds) was 16 µM and the “LD50 vALUE” [8] was 0.615 mmol/kg.
In the case of CC[N+](CC)(CC)CCCCC1C(=O)[O][Pt]([NH2])([NH2])[O]C1=O [Compound 66], the IC50 ([7]; Table 2, formula II compounds) is reported as 20 µM and the “LD50 vALUE” [8] is reported as 0.677 mmol/kg.
For CCCC[NH][Pt]1([NH]CCCC)[O]C(=O)C(CCCC[N+](CC)(CC)CC)C(=O)[O]1 [Compound 67], the IC50 ([7]; Table 2, formula II compounds) was 27 µM and the “LD50 vALUE” [8] was 0.802 mmol/kg.
